A word on the inhibition: it is how much of the control response was suppressed. A word on the pIC50: it is the IC50 on a negative log10 scale, so that one unit is a factor of ten.

pIC50: −log10 of the molar value.

The first assay deals with T1, Recombinant human GSK3β (Homo sapiens, UniProt P49841).
T1 construct: His-tag; made in house; host or cells: Sf9 insect cells / baculovirus
T1 sequence (P49841 whole entry): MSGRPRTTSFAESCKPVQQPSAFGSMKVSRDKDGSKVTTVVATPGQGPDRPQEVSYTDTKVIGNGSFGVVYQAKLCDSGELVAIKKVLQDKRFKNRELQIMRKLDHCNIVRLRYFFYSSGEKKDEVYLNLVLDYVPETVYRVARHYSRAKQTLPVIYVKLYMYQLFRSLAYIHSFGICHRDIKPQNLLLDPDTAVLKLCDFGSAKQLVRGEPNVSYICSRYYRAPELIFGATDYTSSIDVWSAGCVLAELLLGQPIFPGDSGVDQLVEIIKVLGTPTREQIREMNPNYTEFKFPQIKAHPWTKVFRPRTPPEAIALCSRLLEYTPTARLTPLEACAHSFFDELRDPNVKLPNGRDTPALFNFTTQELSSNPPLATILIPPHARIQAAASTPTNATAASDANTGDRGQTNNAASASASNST
As to the kind of experiment: GSK-3β (Glycogen Synthase Kinase) cell free enzyme assay. The following applies: 1 μM; Examples 157-199; read-out: Percent inhibition at 1 μM. In kind it is biochemical. The protocol: Assay Protocol for GSK-3β (Glycogen Synthase Kinase) in a Cell Free Enzyme Assay
Recombinant human GSK3β was expressed in SF9/Baculo virus cells. His-tag protein was purified by affinity chromatography to a Ni-NTA Superflow column. Enzyme activity was assayed as the incorporation of [33P] from the gamma phosphate of [33P]ATP (PerkinElmer) into biotinylated peptide substrate bio-LC-S-R-H-S-S-P-H-Q-pS-E-D-E-E-E-OH (Anaspec). Reactions were carried out in a buffer containing 8 mM MOPS (pH 7.0), 10 mM Magnesium Acetate, 0.2 mM EDTA, 1 mM DTT and 2 uM cold ATP. The 33P-ATP was added for 0.025 uCi/well (120 uL) and the final concentration of substrate was 1.0 uM. Enzyme was preincubated with test agent for 30 minutes at room temperature followed by initiation of the reaction by the addition of substrate mix. Incubations were carried out at RT for 60 min. Reactions were stopped by addition of 0.66 volume of buffer containing: 12.5 mM EDTA, 0.25% Triton-X 100, 125 uM ATP, and 6.2 mg/ml streptavidin coated SPA beads (Amersham) in PBS without Ca or Mg. Radioactivity associated with the beads was quantified by scintillation counting of CPM in a Trilux counter (PerkinElmer).
Examples 42 to 60 were prepared using the analogous procedure described to prepare Example 41, substituting the appropriate starting material (Examples 1 to 35) and coupling with the appropriate acid. The assay protocol used is the percent inhibition at 1 μM for GSK-3β in the cell free enzyme assay described above.
In the case of `Cn1c(NC2CCCCN(S(=O)(=O)c3ccccc3)C2)nc(-c2ccncc2)cc1=O` (stereo not shown) [Example 173, 3-Methyl-2-{[1-(phenylsulfonyl)azepan-3-yl]amino}-6-pyridin-4-ylpyrimidin-4(3H)-one], the inhibition at 1 µM amounted to 51%.

As for `CN(c1nc(-c2ccncc2)cc(=O)n1C)C1CCCN(S(=O)(=O)c2ccccc2)CC1` (stereo not shown) [Example 181, 3-Methyl-2-{methyl[1-(phenylsulfonyl)azepan-4-yl]amino}-6-pyridin-4-ylpyrimidin-4(3H)-one], the inhibition at 1 µM came to 96%.

In the case of `CCN(c1nc(-c2ccncc2)cc(=O)n1C)C1CCN(S(=O)(=O)Cc2ccccc2)C1` (stereo not shown) [Example 198, 2-{[1-(Benzylsulfonyl)pyrrolidin-3-yl](ethyl)amino}-3-methyl-6-pyridin-4-ylpyrimidin-4(3H)-one], the inhibition at 1 µM stood at 97%.

As for `Cn1c(NC2CCCN(S(=O)(=O)c3ccccc3)CC2)nc(-c2ccncc2)cc1=O` (stereo not shown) [Example 170, 3-Methyl-2-{[1-(phenylsulfonyl)azepan-4-yl]amino}-6-pyridin-4-ylpyrimidin-4(3H)-one], the inhibition at 1 µM was 99%.

The same assay, now with this note: 1 μM; Examples 201-221.
Regarding “Methyl (1R,5S)-3-(1-methyl- 6-oxo-4-pyridin-4-yl-16- dihydropyrimidin-2-yl)-38- diazabicyclo[3.2.1]octane-8- carboxylate [Example 201]”, the “Percent inhibition at 1 μM” value is on record as 89%.

Still in this assay, the particulars now being: 1 μM; Examples 201-221; read-out: Percent inhibition at 1 μM.
In the case of `CCN(c1nc(-c2ccncc2)cc(=O)n1C)C1CCCN(C(=O)OC)CC1` (stereo not shown) [Example 215, Methyl 4-[ethyl(1-methyl-6-oxo-4-pyridin-4-yl-16-dihydropyrimidin-2-yl)amino]azepane-1-carboxylate], the inhibition at 1 µM was determined as 93%.

Consider `COC(=O)N1CCC[C@@H]1CNc1nc(-c2ccncc2)cc(=O)n1C` [Example 220, Methyl (2R)-2-{[(1-methyl-6-oxo-4-pyridin-4-yl-16-dihydropyrimidin-2-yl)amino]methyl}pyrrolidine-1-carboxylate], for which the inhibition at 1 µM amounted to 91%.

Still in this assay, the particulars now being: 1 μM; Examples 236-262; read-out: Percent inhibition at 1 μM.
`CN1[C@@H]2CC[C@H]1CN(c1nc(-c3ccncc3)cc(=O)n1C)C2` [Example 238, 3-Methyl-2-[(1R,5S)-8-methyl-38-diazabicyclo[3.2.1]oct-3-yl]-6-pyridin-4-ylpyrimidin-4(3H)-one]: the inhibition at 1 µM was determined as 47%.

Regarding `CCN(c1nc(-c2ccncc2)cc(=O)n1C)C1CCN(Cc2ccccc2)CC1` [Example 260, 2-[(1-Benzylpiperidin-4-yl)(ethyl)amino]-3′-methyl-6-pyridin-4-ylpyrimidin-4(3H)-one], the inhibition at 1 µM was 44%.

For the compound `CCN(c1nc(-c2ccncc2)cc(=O)n1C)C1CCN(Cc2ccccc2)C1` (stereo not shown) [Example 257, 2-[(1-Benzylpyrrolidin-3-yl)(ethyl)amino]-3-methyl-6-pyridin-4-ylpyrimidin-4(3H)-one], the inhibition at 1 µM stood at 71%.

Still in this assay, the particulars now being: 1 μM; GSK-3β cell free enzyme assay; Examples 42-60; read-out: Percent inhibition at 1 μM.
As to `CCN(c1nc(-c2ccncc2)cc(=O)n1C)C1CCN(C(C)=O)CC1` [Example 57, 2-[(1-Acetylpiperidin-4-yl)(ethyl)amino]-3-methyl-6-pyridin-4-ylpyrimidin-4(3H)-one], the inhibition at 1 µM came to 93%.

On to `CC(=O)N1CC[C@@]2(C)C[C@H](N(C)c3nc(-c4ccncc4)cc(=O)n3C)CC[C@@H]12` [Example 55, 2-{[(3a,S5,R7,aR)-1-Acetyl-3a-methyloctahydro-1H-indol-5-yl](methyl)amino}-3-methyl-6-pyridin-4-ylpyrimidin-4(3H)-one], for which the inhibition at 1 µM was found to be 71%.

Still in this assay, the particulars now being: cell free enzyme assay; Examples 1-35.
For the compound `CC1c2cccn2CCN1c1nc(-c2ccncc2)cc(=O)n1C` (stereo not shown) [Example 7, 3-Methyl-2-(1-methyl-3,4-dihydropyrrolo[1,2-a]pyrazin-2(1H)-yl)-6-pyridin-4-ylpyrimidin-4(3H)-one], the pIC50 was 7.97.

`Cn1c(NC2CCN(C(=O)OC(C)(C)C)C2)nc(-c2ccncc2)cc1=O` (stereo not shown) [Example 24, tert-butyl 3-[(1-Methyl-6-oxo-4-pyridin-4-yl-1,6-dihydropyrimidin-2-yl)amino]pyrrolidine-1-carboxylate]: the pIC50 is 7.37.

Turning to `Cn1c(NC2CCCN(C(=O)OC(C)(C)C)CC2)nc(-c2ccncc2)cc1=O` (stereo not shown) [Example 8, tert-butyl 4-[(1-Methyl-6-oxo-4-pyridin-4-yl-1,6-dihydropyrimidin-2-yl)amino]azepane-1-carboxylate], the negative logarithm of the IC50 (pIC50) was 8.04.

On to `Cn1c(N[C@@H]2CN(C(=O)OC(C)(C)C)C[C@@H]2F)nc(-c2ccncc2)cc1=O` [Example 33, tert-butyl (3S,4R)-3-Fluoro-4-[(1-methyl-6-oxo-4-pyridin-4-yl-1,6-dihydropyrimidin-2-yl)amino]pyrrolidine-1-carboxylate], for which the negative-log IC50 (pIC50) is 7.11.

`COc1cccc2c1CC[C@@H](Nc1nc(-c3ccncc3)cc(=O)n1C)[C@H]2C` [Example 28, 2-{[(1S,2R)-5-Methoxy-1-methyl-1,2,3,4-tetrahydronaphthalen-2-yl]amino}-3-methyl-6-pyridin-4-ylpyrimidin-4(3H)-one]: the negative logarithm of the IC50 (pIC50) was 8.41.

On to `CN(c1nc(-c2ccncc2)cc(=O)n1C)C1CCN(C(=O)OC(C)(C)C)C1` (stereo not shown) [Example 11, tert-butyl 3-[Methyl(1-methyl-6-oxo-4-pyridin-4-yl-1,6-dihydropyrimidin-2-yl)amino]pyrrolidine-1-carboxylate], for which the negative logarithm of the IC50 (pIC50) was 7.75.

The assay is the same for the next values; noted with them: cell free enzyme assay; Examples 62-155.
For the compound `CN(c1nc(-c2ccncc2F)cc(=O)n1C)[C@H]1[C@@H]2CN(C(=O)c3c(Cl)cccc3Cl)C[C@@H]21` [Example 149, 2-{[(1R,5S,6s)-3-(2,6-Dichlorobenzoyl)-3-azabicyclo[3.1.0]hex-6-yl](methyl)amino}-6-(3-fluoropyridin-4-yl)-3-methylpyrimidin-4(3H)-one], the negative-log IC50 (pIC50) is 8.42.

As for `CN(c1nc(-c2ccncc2F)cc(=O)n1C)[C@H]1[C@@H]2CN(C(=O)C3CCCC3)C[C@@H]21` [Example 108, 2-{[(1R,5S,6s)-3-(Cyclopentylcarbonyl)-3-azabicyclo[3.1.0]hex-6-yl](methyl)amino}-6-(3-fluoropyridin-4-yl)-3-methylpyrimidin-4(3H)-one], the negative-log IC50 (pIC50) was 8.19.

As for `CN(c1nc(-c2ccncc2F)cc(=O)n1C)[C@H]1[C@@H]2CN(C(=O)c3ccc(F)cc3)C[C@@H]21` [Example 139, 2-{[(1R,5S,6s)-3-(4-Fluorobenzoyl)-3-azabicyclo[3.1.0]hex-6-yl](methyl)amino}-6-(3-fluoropyridin-4-yl)-3-methylpyrimidin-4(3H)-one], the pIC50 is 8.25.

`CN(c1nc(-c2ccncc2F)cc(=O)n1C)[C@H]1[C@@H]2CN(C(=O)Cc3cccs3)C[C@@H]21` [Example 146, 6-(3-Fluoropyridin-4-yl)-3-methyl-2-{methyl[(1R,5S,6s)-3-(2-thienylacetyl)-3-azabicyclo[3.1.0]hex-6-yl]amino}pyrimidin-4(3H)-one]: the negative logarithm of the IC50 (pIC50) is 8.21.

Consider `COc1ccc(C(=O)N2C[C@@H]3[C@H](C2)[C@H]3N(C)c2nc(-c3ccncc3F)cc(=O)n2C)c(OC)c1` [Example 151, 2-{[(1R,5S,6s)-3-(2,4-Dimethoxybenzoyl)-3-azabicyclo[3.1.0]hex-6-yl](methyl)amino}-6-(3-fluoropyridin-4-yl)-3-methylpyrimidin-4(3H)-one], for which the pIC50 is 8.91.

For the compound `CN(c1nc(-c2ccncc2F)cc(=O)n1C)[C@H]1[C@@H]2CN(C(=O)c3cccc(C(F)(F)F)c3)C[C@@H]21` [Example 125, 6-(3-Fluoropyridin-4-yl)-3-methyl-2-(methyl{(1R,5S,6s)-3-[3-(trifluoromethyl)benzoyl]-3-azabicyclo[3.1.0]hex-6-yl}amino)pyrimidin-4(3H)-one], the negative logarithm of the IC50 (pIC50) was 8.68.

On to `CN(c1nc(-c2ccncc2F)cc(=O)n1C)C1[C@H]2CN(C(=O)C34CC[C@@](C)(C(=O)O3)C4(C)C)C[C@@H]12` (stereo partly drawn) [Example 134, 6-(3-Fluoropyridin-4-yl)-3-methyl-2-{methyl[(1R,5S,6R)-3-{[(1S,4R)-4,7,7-trimethyl-3-oxo-2-oxabicyclo[2.2.1]hept-1-yl]carbonyl}-3-azabicyclo[3.1.0]hex-6-yl]amino}pyrimidin-4(3H)-one], for which the negative logarithm of the IC50 (pIC50) is 7.18.

As to `Cn1c(NC2CCCCN(C(=O)Cc3ccccc3)C2)nc(-c2ccncc2)cc1=O` (stereo not shown) [Example 84, 3-Methyl-2-{[1-(phenylacetyl)azepan-3-yl]amino}-6-pyridin-4-ylpyrimidin-4(3H)-one], the pIC50 is 6.17.

With `COc1ccccc1C(=O)N1C[C@@H]2[C@H](C1)[C@H]2N(C)c1nc(-c2ccncc2F)cc(=O)n1C` [Example 106, 6-(3-Fluoropyridin-4-yl)-2-{[(1R,5S,6s)-3-(2-methoxybenzoyl)-3-azabicyclo[3.1.0]hex-6-yl](methyl)amino}-3-methylpyrimidin-4(3H)-one], the pIC50 is 9.04.

Staying with this assay, now noted: cell free enzyme assay; Examples 265-291.
With `COc1ccc2nc(N3C[C@@H]4[C@H](C3)[C@H]4N(C)c3nc(-c4ccncc4F)cc(=O)n3C)sc2c1` [Example 289, 6-(3-Fluoropyridin-4-yl)-2-{[(1R,5S,6s)-3-(6-methoxy-1,3-benzothiazol-2-yl)-3-azabicyclo[3.1.0]hex-6-yl](methyl)amino}-3-methylpyrimidin-4(3H)-one], the pIC50 was 7.60.

Source of the values: patent US20100292205A1, “Pyrimidone Compounds As GSK-3 Inhibitors” (PFIZER INC., priority 2006, published 2010).
